Patent US20260250257A1, “ANTIBACTERIAL AND SYNERGISTIC ACTIVE COMPOUND AND USE THEREOF” (EAST CHINA UNIVERSITY OF SCIENCE AND TECHNOLOGY, priority 2023, published 2026)
Values after ≈ are worked out from the molar mass of the structure shown.

Tests used:
Format in all cases: cell-based
[1] = test system: ATCC13883 strain (Klebsiella pneumoniae); assay: Checkerboard antibacterial synergistic activity test with polymyxin E (FIC); parameters: key: FIC≤0.5 synergy; 0.5–1 additive; 1–2 indifferent; ≥2 antagonism; settings: combined with polymyxin E
In short: (§1)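 First, two-fold series of polymyxin E (16–0.015 μg/ml) and compound (256–4 μg/ml) were made in MH broth. Next, combinations went into a 96-well grid, bacterial liquid was added, and plates sat at 37° C. for 16 h. Finally, FIC was computed and classed (≤0.5 synergistic).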

[2] = test system: ATCC25922 strain (Escherichia coli); assay: as above; parameters: key: FIC≤0.5 synergy; 0.5–1 additive; 1–2 indifferent; ≥2 antagonism; settings: combined with polymyxin E
In short: as §1

[3] = test system: ATCC9027 strain (Pseudomonas aeruginosa); assay: as above; parameters: key: FIC≤0.5 synergy; 0.5–1 additive; 1–2 indifferent; ≥2 antagonism; settings: combined with polymyxin E
In short: as §1

[4] = test system: ATCC19606 strain (Acinetobacter baumannii); assay: as above; parameters: key: FIC≤0.5 synergy; 0.5–1 additive; 1–2 indifferent; ≥2 antagonism; settings: combined with polymyxin E
In short: as §1

[5] = test system: ATCC13883 strain (Klebsiella pneumoniae); assay: Broth microdilution, antibacterial activity of the compound used alone
Excerpt: (§2) The broth microdilution method was used to test the antibacterial effects of the compounds of the present invention against various Gram-negative bacterial strains when used alone.

[6] = test system: ATCC25922 strain (Escherichia coli); assay: as above
Excerpt: as §2

[7] = test system: ATCC9027 strain (Pseudomonas aeruginosa); assay: as above
Excerpt: as §2

[8] = test system: ATCC19606 strain (Acinetobacter baumannii); assay: as above
Excerpt: as §2

Row | SMILES | Synergistic activity (FIC value) ATCC13883 [1] | Synergistic activity (FIC value) ATCC25922 [2] | Synergistic activity (FIC value) ATCC9027 [3] | Synergistic activity (FIC value) ATCC19606 [4] | Antibacterial activity of the compound of Formula I, ATCC13883 [5] [µg/mL] | Antibacterial activity of the compound of Formula I, ATCC25922 [6] [µg/mL] | Antibacterial activity of the compound of Formula I, ATCC9027 [7] [µg/mL] | Antibacterial activity of the compound of Formula I, ATCC19606 [8] [µg/mL] | MIC ([5]; read-out: Antibacterial activity of the compound of Formula I, ATCC13883) [µg/mL] | MIC ([6]; read-out: Antibacterial activity of the compound of Formula I, ATCC25922) [µg/mL] | MIC ([7]; read-out: Antibacterial activity of the compound of Formula I, ATCC9027) [µg/mL] | MIC ([8]; read-out: Antibacterial activity of the compound of Formula I, ATCC19606) [µg/mL]
1 | NC(N)=Nc1nc(-c2cccc(N3CCOCC3)c2)cs1 [Compound I-120] | 0.28 | 0.75 | 0.25 | 1.25 | 256 | 256 | 256 | 256 |  |  |  | 
2 | CSc1cc2cc(C)cc(C)n2c1-c1nc(N=C(N)N)oc1C [Compound I-128] | 0.16 | 0.18 | 0.28 | 0.03 | 256 | 256 | 256 | 256 |  |  |  | 
3 | COc1ccc(Oc2ccccc2-c2csc(N=C3NCCCN3)n2)c(OC)c1 [Compound I-149] | 0.16 | 0.18 | 0.28 | 0.03 | 256 | 256 | 256 | 256 |  |  |  | 
4 | c1ccn2c(-c3coc(N=C4NCCCN4)n3)ccc2c1 [Compound I-189] | 0.25 | 0.5 | 0.63 | 0.28 | 256 | 256 | 256 | 256 |  |  |  | 
5 | NC(N)=Nc1nc(-c2cccc(NC(=O)Nc3ccc(Cl)cc3Cl)c2)c(Cl)s1 [Compound I-133] | 0.19 | 0.04 | 0.04 | 0.38 | 256 | 256 | 256 | 256 |  |  |  | 
6 | CCc1oc(N=C2NCCCN2)nc1-c1c(SC)cc2cc(Cl)cc(Cl)n12 [Compound I-197] | 0.25 | 0.27 | 0.52 | 0.31 | 256 | 256 | 256 | 256 |  |  |  | 
7 | CSc1cc2c(Cl)cccn2c1-c1c[nH]c(N=C(N)N)n1 [Compound I-129] | 0.09 | 0.14 | 0.06 | 0.31 | 256 | 256 | 256 | 256 |  |  |  | 
8 | NC(N)=Nc1nc(-c2cccc3cc(Cl)ccc23)co1 [Compound I-64] | 0.52 | 0.63 | 1.25 | 0.52 | 256 | 256 | 256 | 256 |  |  |  | 
9 | Cc1cc(C)c2c(-c3csc(N=C(N)N)n3)cccc2c1 [Compound I-61] | 0.63 | 0.5 | 0.56 | 0.75 | 256 | 256 | 256 | 256 |  |  |  | 
10 | CS(=O)(=O)c1ccc(Oc2ccccc2-c2nc(N=C(N)N)sc2Cl)cc1 [Compound I-103] | 1.25 | 0.53 | 1.25 | 1.25 | 256 | 256 | 256 | 256 |  |  |  | 
11 | Ic1ccccc1Oc1ccccc1-c1csc(N=C2NCCCN2)n1 [Compound I-147] | 0.16 | 0.18 | 0.28 | 0.03 | 128 | 128 | 64 | 256 |  |  |  | 
12 | Clc1cccc(-c2csc(N=C3NCCCN3)n2)c1Cl [Compound I-184] | 0.25 | 0.5 | 0.63 | 0.28 | 256 | 256 | 256 | 256 |  |  |  | 
13 | Oc1cc(Oc2ccc(Cl)cc2Cl)cc(-c2csc(N=C3NCCCN3)n2)c1 [Compound I-156] | 0.13 | 0.2 | 0.28 | 0.04 | 256 | 256 | 256 | 256 |  |  |  | 
14 | Cc1sc(N=C2NCCCN2)nc1-c1cc(I)cc(I)c1 [Compound I-182] | 0.31 | 0.56 | 0.5 | 0.25 | 256 | 256 | 256 | 256 |  |  |  | 
15 | NC(N)=Nc1nc(-c2c(Cl)cc(Cl)cc2Cl)c[nH]1 [Compound I-52] | 0.25 | 0.5 | 0.63 | 0.3 | 256 | 256 | 256 | 256 |  |  |  | 
16 | NC(N)=Nc1nc(-c2cccc(Cl)c2)cs1 [Compound I-37] | 1.25 | 1.25 | 0.52 | 0.25 | 256 | 256 | 256 | 256 |  |  |  | 
17 | COc1ccc(Oc2ccccc2-c2csc(N=C(N)N)n2)c(OC)c1 [Compound I-88] | 0.13 | 0.2 | 0.28 | 0.04 | 256 | 256 | 256 | 256 |  |  |  | 
18 | NC(N)=Nc1nc(-c2ccc(OCc3ccccc3)c3nc(O)ccc23)cs1 [Compound I-114] | 1.25 | 0.5 | 1.25 | 0.27 |  |  |  |  | 256 (≈ 654 µM) | 256 (≈ 654 µM) | 256 (≈ 654 µM) | 256 (≈ 654 µM)
